Values quoted from earlier work, collected in patent EP4108230A1, “NEW DRY POWDER COMPOSITION OF TIOTROPIUM FOR INHALATION” (Laboratoires SMB, priority 2021, dated 2022).

solubility in methanol (methanol): soluble
solubility in water (water): sparingly soluble
Structure (SMILES): C[N+]1(C)[C@@H]2C[C@@H](OC(=O)C(O)(c3cccs3)c3cccs3)C[C@H]1[C@@H]1O[C@@H]12 [Tiotropium bromide, (1α, 2β, 4 β, 5α, 7β)-7-[(Hydroxydi-2-thienylacetyl)oxy]-9,9-dimethyl-3-oxa-9-azoniatricyclo[3.3.1.02,4] nonane bromide monohydrate]
